Laboratory results reported in patent US10973912B2, “Treatment for myopathy” (Children's Medical Center Corporation, priority 2015, dated 2021).
Where “and” joins values, the source holds several entries; their conditions need not be identical. Equal values may be shown once. Where a name gives a salt, the structure may show the parent alone.

Key:
[1] = system: satellite cell expansion and muscle generation; conditions: in vitro and in mice, aging and dystrophic mouse models; cited from earlier work
[2] = system: ryr1b homozygous mutant zebrafish; assay type: in vivo, zebrafish (Danio rerio); conditions: for touch-evoked escape behaviors / mobility of ryr1b mutants: treated from 1 dpf, scored and genotyped at 5 dpf
Method: In two independent experiments, two pools of 20 larvae from heterozygous ryr1b matings were treated with DMSO or with one of three different concentrations of NIF (1.0-100.0 μg/mL) at 1 dpf and evaluated in terms of touch-evoked escape behaviors at 5 dpf (n=40). Following phenotypic scoring, all living embryos were genotyped using three-primer genomic PCR. Swimming scores for larvae genotype-confirmed as ryr1b homozygous mutants are shown as a percentage of the total number of living larvae in each dose category: 1=poor swimming; 2 or 3=moderate or wild-type swimming. NIF improved mobility of ryr1b mutants at a dose of 10 μg/mL. […] Phospho-Stat3 band intensities were normalized to β-Actin control bands and quantified in Image J (NIH).
FIGS. 12A-12C show a ketoprofen dose-response and proposed mechanistic link. […] FIG. 12B is a dose-response graph for ketoprofen (KETO). Two pools of 20 larvae from heterozygous ryr1b matings were treated with DMSO or four different concentrations of KETO (1.0-100.0 μg/mL) at 1 dpf and evaluated in terms of touch-evoked escape behaviors at 5 dpf (n=40). Following phenotypic scoring, all living embryos were genotyped using three-primer genomic PCR. Swimming scores for larvae genotype-confirmed as ryr1b homozygous mutants are shown as a percentage of the total number of living larvae in each dose category: 1=poor swimming, 2 or 3=moderate or wild-type swimming. […] Phosphorylated STATs form dimers, translocate to nuclei, and from there are associated with various transcriptional activities. Dubowitz, V. and Sewry, C. (2006) Muscle Biopsy: A Practical Approach. Elsevier-Health Sciences Division.
The relatively relaxed zebrafish was initially identified due to a spontaneous autosomal recessive mutation within the ryr1b gene^30. Specifically, ryr1b mutants carry a 4046 base pair (bp) DNA insertion in the intron between exons 48 and 49 that includes an additional 32 bp sequence found in mutant cDNA (FIG. 3)^30. Genotypes of individual embryos were examined using three-primer genomic PCR, with an expected wild-type band of 1,668 bp and a mutant band of 653 bp. Primer sequences were as follows: ryr1b #1 (forward): 5′-[…]-3′ (SEQ ID NO: 4); ryr1b #2 (reverse): 5′-[…]-3′ (SEQ ID NO: 5); and ryr1b #3 (reverse): 5′-[…]-3′ (SEQ ID NO: 6).
The primary and secondary screens only tested chemical pools and individual compounds at a single concentration (2.0 μg/mL). Although beneficial in a high-throughput context, this approach can result in false positives and false negatives. […] For analysis, pools of 20 larvae obtained from heterozygous ryr1b matings were treated in duplicate with DMSO or with one of three different concentrations of NIF (1.0-100.0 μg/mL) at 1 dpf and scored for touch-evoked escape behaviors at 5 dpf. All scored larvae were then genotyped using three-primer genomic PCR. […] Next, hit expansion was used to verify JAK-STAT as a potential molecular pathway involved in ryr1b mutant pathology. […] A higher effective dose for 5,15-DPP was consistent with the IC50 measurements reported for each compound^40,41.

[3] = system: ryr1b homozygous mutant zebrafish; experiment: Secondary screen of individual chemicals in ryr1b zebrafish (vitality: survival and touch-evoked escape behavior); assay type: in vivo, zebrafish (Danio rerio); set-up: key: vitality score, theoretical range 0–60; DMSO controls expected ~50; conditions: 2.0 μg/mL from 1 dpf, scored at 5 dpf; average of two replicates of 20 larvae from heterozygous ryr1b matings; score=(#Dead*0)+(#ryr1b*1)+(#Moderate*2)+(#Wild-type*3), max 60, expected 50 in DMSO controls
Method: Each scored compound represents an average of two replicates, consisting of 20 larvae from heterozygous ryr1b matings (n=40). Larvae obtained from wild-type AB matings served as positive controls. […] Significance was determined by pairwise comparisons between control and experimental pools using a Student's t-test. Vitality score=(#Dead*0)+(#ryr1b*1)+(#Moderate*2)+(#Wild-type*3). Standard deviations shown for positive and negative controls were calculated based on results from 5 and 21 independent experiments, respectively.
Primary screen. For the primary screen, twenty embryos (1 dpf) resulting from a mating of heterozygous ryr1b zebrafish were manually sorted into 48-well plates containing 250 μL embryo 1×E3 medium (5.0 mM NaCl, 0.17 mM KCl, 0.33 mM CaCl2*2H2O, 0.33 mM MgSO4*7H2O) and four pooled chemicals from the Prestwick2 chemical library. Each chemical pool was assayed in duplicate using embryos from two independent clutches, for a total of 24 distinct pools tested per plate (FIG. 1). The chemicals were dissolved to a final concentration of 2.0 μg/mL and 0.4% DMSO, which is similar to concentrations other groups have used in zebrafish studies^37,38. As a negative control, twenty embryos from each clutch were cultured without chemicals in vehicle only (0.4% DMSO) (FIG. 1). Larvae obtained from wild-type (Oregon AB) matings served as positive controls in separate plates. All plates containing embryos were incubated at 28.5° C. and maintained as initially treated for 5 days. Dead embryos were removed from wells when observed during the first 4 days of the study. On day 5, dead or “motion-dead” larvae were scored alongside living larvae.
At 5 dpf, pools were scored for their ability to improve the survival and touch-evoked escape behaviors of ryr1b homozygous mutants using the following numeric scoring system: 3=4-6 cm, fast (wild-type); 2=2-4 cm (moderate); 1=<2 cm, slow (ryr1b); 0=no movement (dead) (FIG. 2A). Survival, swimming, and combined endpoints of the primary screen were then examined for their ability to distinguish positive from negative controls. […] Taking into account both experimental replicates (n=40), hit pools contained at least 37 alive larvae on day 5 (i.e., 70-100% of the larvae assumed to be ryr1b mutants survived the duration of the study), and were selected for analysis in a secondary screen.
In the secondary screen, hit pools were separated and tested as 68 individual chemicals. Screening was performed precisely as described for the primary screen with few modifications. Embryos were raised in wells containing 750 μL 1×E3 medium, as opposed to 250 μL, although the final concentration of each compound was maintained at 2.0 μg/mL. […] Vitality scores, weighting survival and swimming ratios appropriately, were calculated as (#Dead*0)+(#ryr1b*1)+(#Moderate*2)+(#Wild-type*3). Theoretical maximum and minimum scores were 60 and 0, respectively, with an expected score of 50 in DMSO-treated controls. Secondary screen hits (P<0.05), considered “candidate” compounds, are currently being examined in dose-response and long-term studies.
The second tier of the chemical screen was performed two years following the primary screen, with a fully established ryr1b^+/− line. Healthier clutches tended to result in better survival of homozygous ryr1b mutants. Median mutant life spans more accurately adhered to the 7-15 day estimate previously published^30. Therefore, in the secondary screen, hit chemical pools were separated into individual compounds and each of 68 total compounds was examined for its ability to positively influence both ryr1b survival and motor function (referred to in combination as “vitality”). […] These included two anti-inflammatory agents (sulfasalazine and ketoprofen), two monoamine oxidase inhibitors (pargyline hydrochloride and tranylcypromine hydrochloride), and two ion channel modulators (metolazone and nimodipine).

IL-6 [4] = conditions: in vitro; cited from earlier work
ryr1b phenotype = conditions: zebrafish, in vivo; cited from earlier work
[5] = system: myofiber apoptosis and muscle strength; conditions: mouse, in vivo; cited from earlier work
IL-6 [6] = conditions: skeletal muscle; cited from earlier work

Row | Structure (SMILES) | Vitality Score [3] | other results
1 | C1=Cc2nc1cc1ccc([nH]1)c(-c1ccccc1)c1nc(cc3ccc([nH]3)c2-c2ccccc2)C=C1 [5,15-DPP, 5,15-diphenylporphyrin] |  | satellite cell expansion and muscle generation [1]: promotes satellite cell expansion and rescues defects in muscle generation; genotyped ryr1b larvae in treated pools (evidence of toxicity) ([2]; 5 dpf, 25% mutants expected): less than 25%; dose that improved mobility of ryr1b mutants / optimal activity ([2]; treated at 1 dpf, touch-evoked escape behaviors at 5 dpf, tested 1.0-100.0 μg/mL): 100.0 µg/mL and 100 µg/mL; touch-evoked escape behaviors / mobility of ryr1b mutants [2]: ryr1b mutants were among larvae that exhibited wild-type touch-evoked escape behaviors
2 | N#C/C(=C/c1ccc(O)c(O)c1)C(=O)NCc1ccccc1 [AG490] |  | satellite cell expansion and muscle generation [1]: promotes satellite cell expansion and rescues defects in muscle generation
3 | CCCCOc1cc(C(=O)OCCN(CC)CC)ccc1N [Benoxinate hydrochloride] | 52.5 | 
4 | CC(=O)N(CC(O)CO)c1c(I)c(C(=O)NCC(O)CO)c(I)c(C(=O)NCC(O)CO)c1I (stereo not drawn) [Iohexol] | 53.5 | 
5 | CC(C(=O)O)c1cccc(C(=O)c2ccccc2)c1 (stereo not drawn) [Ketoprofen] | 52.0 | touch-evoked escape behaviors / mobility of ryr1b mutants [2]: confirmed a relationship between ketoprofen and improvements in ryr1b mobility; production of IL-6 (IL-6 [4]): inhibits the production of IL-6 in vitro
6 | Cc1ccccc1N1C(=O)c2cc(S(N)(=O)=O)c(Cl)cc2NC1C (stereo not drawn) [Metolazone] | 55.5 | 
7 | Clc1ccc(COC(Cn2ccnc2)c2ccc(Cl)cc2Cl)c(Cl)c1 (stereo not drawn) [Miconazole] | 54.0 | 
8 | CC(=O)N[C@@H](CS)C(=O)O [N-acetylcysteine] |  | effect on ryr1b phenotype (ryr1b phenotype): shown to ameliorate select aspects of the ryr1b phenotype
9 | COCCOC(=O)C1=C(C)NC(C)=C(C(=O)OC(C)C)C1c1cccc([N+](=O)[O-])c1 (stereo not drawn) [Nimodipine] | 52.0 | 
10 | C#CCN(C)Cc1ccccc1 [Pargyline hydrochloride] | 58.0 | myofiber apoptosis and muscle strength [5]: significantly decreases myofiber apoptosis and increases muscle strength
11 | O=C(O)c1cc(/N=N/c2ccc(S(=O)(=O)Nc3ccccn3)cc2)ccc1O [Sulfasalazine] | 57.0 | IL-6 release (IL-6 [6]): inhibit IL-6 release in skeletal muscle
12 | Clc1ccccc1CN1CCc2sccc2C1 [Ticlopidine hydrochloride] | 54.0 | 
13 | N[C@@H]1C[C@H]1c1ccccc1 [Tranylcypromine hydrochloride] | 52.0 | 
14 | CN(C)C/C=C(/c1ccc(Br)cc1)c1cccnc1 [Zimelidine dihydrochloride monohydrate] | 55.0 | 
